According to US9120780B2, “Indole or indazole derivative or salt thereof” (TAIHO PHARMACEUTICAL CO., LTD., priority 2011, dated 2015):

What was measured:
[1] = target: human HSP90 alpha protein (N-terminal, amino acids 2-236) (Homo sapiens (Human), UniProt P07900); experiment: Measurement of HSP90-binding activity (AlphaScreen competitive assay, biotin-labeled geldanamycin); conditions: inhibition of biotin-labeled geldanamycin binding to purified HSP90; read-out: HSP-binding activity IC50
Description: First, a solution of purified HSP90 was prepared as follows. […] The pET-HSP90N was introduced into Escherichia coli cells (BL21 (DE3), Stratagene Inc.), and then the Escherichia coli cells were cultured in the presence of 0.5 mM isopropyl-beta-D-thiogalactopyranoside (Sigma-Aldrich Corp.) at 37° C. for 4 hours. The Escherichia coli cells were collected, suspended in a lysis buffer (50 mM Tris-HCl (pH 7.5), 200 mM NaCl), and sonicated. The sonicated cell solution was centrifuged (40,000×g, 20 minutes) to obtain supernatant as a crude extract. The crude extract was fractionated by Ni Sepharose High Performance (GE Healthcare Japan Corporation) chromatography and HiLoad 26/60 Superdex 75 pg (GE Healthcare Japan Corporation), and the fraction in which HSP90 protein was concentrated was prepared so as to be a 50 mM Tris-HCl (pH 7.5)/20% glycerol solution as a purified HSP90 solution. The purified HSP90 solution was divided and stored at −80° C. until use.
The HSP90-binding activity was measured by an AlphaScreen competitive assay system. […] After reaction at room temperature for 2 hours, biotin-labeled geldanamycin was added to each reaction solution in an amount of 40 nM, followed by reaction for further 1 hour. […] After reaction in a dark place at room temperature for 1 hour, the fluorescence intensity in each well was measured with a multilabel plate reader, EnVision (Perkin Elmer, Inc.). The inhibition rate (%) of biotin-labeled geldanamycin binding by a compound of the present invention was determined by the following equation using the fluorescence signal of a test substance-free group (control) as a control. […] Inhibition rate (%)=(C−T)/C×100 T: signal in a well to which a test substance was added C: signal in a well to which no test substance was added

[2] = test system: Human gastric cancer cells (NCI-N87); experiment: Antitumor effect in subcutaneous transplantation model of human gastric cancer cell line NCI-N87; assay type: in vivo, nude mice
Description: Human gastric cancer cells (NCI-N87) (obtained from ATCC) were subcutaneously transplanted in nude mice, and at the time when the tumor volume of the nude mice in which the cancer cells had been survived became approximately 140 to 210 mm^3, stratified randomization was performed so that the average tumor volume of each group (6 animals were assigned to one group (grouping: on day 0)) became uniform. The compounds 1, 6, and 9 of the present invention and the comparative compounds 6 (the compound of Example 21 in WO 2010/106290) and 7 (the compound of Example 1 in WO 2010/106290) were orally administered daily once per day from day 1 for 14 days. Note that the comparative compounds were synthesized according to the method described in WO 2010/106290 (Table 22).
The doses of 2 mg/kg/day and 10 mg/kg/day were used for the comparative compounds 6 and 7, and the dose of 2 mg/kg/day was used for the compounds of Examples of 1, 6, and 9 of the present invention.
In order to compare the transition over time of the tumor growth in the administration of each test compound, the relative tumor volume (RTV) was calculated according to the following equation when the tumor volume on the grouping day was defined as 1 for the growth rate of tumor, and the transition of the average value of the RTV of each individual was shown in FIG. 1. RTV=(Tumor volume on tumor volume measurement day)/(Tumor volume when grouped) (Mathematical Formula 1)

SK-BR-3 cells = experiment: Measurement of cell growth inhibition (crystal violet staining); assay type: cell-based; conditions: Homo sapiens, 72 hours culture with test substance
Description: Cell growth was measured by a crystal violet staining method. […] The cells were cultured in a 5% CO2 incubator at 37° C. for 24 hours, and then test substances were added to the plate, followed by culturing for further 72 hours. […] The plate was left to stand at room temperature for 20 minutes for staining the cells. The plate was washed with water and dried, and 100 μL of a mixed solution of 0.05 M NaH2PO4 and ethanol (mixture in equal amounts) was added to each well. The absorbance at 540 nm was measured with a microplate reader (MTP-450, Corona Electric Co., Ltd.) as an index of the number of cells in each well. The inhibition rate (%) of cell growth by a compound of the present invention was determined by the following equation using the absorbance of a drug-untreated group (control) as a control. […] Inhibition rate (%)=(C−T)/C×100 T: absorbance in a well to which a test substance was added C: absorbance in a well to which no test substance was added

For CCc1cc(C(N)=O)ccc1-n1nc(C(C)C)c2c(-n3cnc(-c4cnn(C)c4)c3)cccc21 [Example 6, 3-Ethyl-4-(3-isopropyl-4-(4-(1-methyl-1H-pyrazol-4-yl)-1H-imidazol-1-yl)-1H-indazol-1-yl)benzamide], the IC50 [1] was 100 nM, the “anti-tumor effect versus comparative compounds 6 and 7 at the same dose (RTV on day 15)” value ([2]; 2 mg/kg/day oral for all compounds, day 15, Student-t test) was “significantly stronger anti-tumor effects than the comparative compounds 6 and 7” and the “inhibition of tumor growth (relative tumor volume, FIG. 1)” value ([2]; 2 mg/kg/day orally once per day for 14 days, nude mice, NCI-N87) was “inhibited the tumor growth within one week from the start of the administration”. The “anti-tumor effect versus comparative compounds 6 and 7 at increased dose (RTV)” value ([2]; Examples at 2 mg/kg/day oral, comparative compounds 6 and 7 at 10 mg/kg/day) was “significantly stronger anti-tumor effect than any of the comparative compounds 6 and 7” and the IC50 (SK-BR-3 cells) was 30 nM.
